Data as given in patent publication US20020081665A1, “Bryostatins, bryopyrans and polyketides: compositions and methods” (priority 1999, published 2002).

Key:
[1] = tested on: lymphocytes; details: in vitro; cited from earlier work
[2] = tested on: lymphocytes; details: cancer patients, intravenous administration; cited from earlier work
[3] = tested on: human breast cancer cells; details: cited from earlier work
[4] = tested on: melanoma; details: cited from earlier work; for side effects: compared with bryostatin 1, melanoma treatment; for effectiveness in treating melanoma: compared with bryostatin 1
[5] = tested on: E. sertula; assay: gentamicin treatment of B. neritina larvae, E. sertula and KSa levels by specific PCR; parameters: species or system Candidatus Endobugula sertula; details: about 100 micrograms per milliliter for about seven days post-settlement, grown out 3 months, vs untreated controls
Description: (§1) B. neritina larvae were treated with gentamicin at about 100 micrograms per milliliter for about seven days post-settlement, grown out for 3 months to re-establish their commensal bacterial flora, and then assayed for E. sertula levels and KSa levels by specific PCR and bryostatin activity by phorbol dibutyrate displacement (PdBu) assay (FIG. 7). The standard method for detecting bryostatins is the PdBu displacement assay (DeVries et al., 1988). Rat brain liposomes are incubated with tritiated PdBu, which binds to PKC in the liposomes. The liposomes are collected by filtration and counted in a scintillation counter. If an extract is added that contains a compound that can compete with phorbol for binding, less tritiated PdBu is bound. The assay has a subnanomolar detection limit for pure bryostatin 1 and is suitable for milligram quantities of sample. In B. neritina, the only compounds with PdBu activity are bryostatins, and PdBu activity is a good measure of total bryostatin activity.

[6] = tested on: B. neritina; assay: gentamicin treatment of B. neritina larvae, bryostatin activity and growth of colonies; parameters: species or system Bugula neritina; details: about 100 micrograms per milliliter for about seven days post-settlement
Description: as §1

## CCC/C=C/C=C/C(=O)O[C@H]1/C(=C/C(=O)OC)C[C@H]2C[C@H]([C@@H](C)O)OC(=O)C[C@H](O)C[C@@H]3C[C@H](OC(C)=O)C(C)(C)[C@](O)(C[C@@H]4C/C(=C/C(=O)OC)C[C@H](/C=C/C(C)(C)[C@]1(O)O2)O4)O3 [bryostatin 1]
[1]
  effect on lymphocytes in combination with IL-2: enhances proliferation and IL-2 receptor expression on lymphocytes
[2]
  effect on IL-2-induced lymphocyte activity in patients: increased the potential of IL-2 to induce proliferation of LAK activity in lymphocytes
[3]
  sensitization to the cytotoxic effects of gemcitabine: sensitized human breast cancer cells to the cytotoxic effects of gemcitabine

## COC(=O)/C=C1/C[C@H]2C[C@]3(O)O[C@H](C[C@@H](O)CC(=O)O[C@@H]([C@@H](C)O)C[C@H]4C/C(=C\C(=O)OC)[C@H](OC(C)=O)[C@@](O)(O4)C(C)(C)/C=C/[C@@H](C1)O2)C[C@H](OC(=O)CC(C)C)C3(C)C [bryostatin 5]
[4]
  side effects: milder side effects
  effectiveness in treating melanoma: as effective as bryostatin 1

## bryostatin 8
[4]
  side effects: milder side effects
  effectiveness in treating melanoma: as effective as bryostatin 1

## gentamicin
[5]; specific PCR
  KSa levels: reduced dramatically
[5]; FIG. 7
  E. sertula population: reduced dramatically
[6]
  bryozoan growth rates, treated versus untreated colonies: the same
[6]; grown out 3 months, vs untreated controls
  bryostatin activity of treated colonies (PdBu assay): reduced
